Experimental data published in patent US8445532B2, “Use of phthalide derivatives” (priority 2005, dated 2013).
≈ marks a conversion by molar mass, not a printed value. Read-outs that look alike come from different tables or passages of the source.

Experiments:
Type in all cases: cell-based, human
K562 = test: MTT drug resistance determination to conventional chemotherapeutic drugs; settings: K562, drug alone, 68 h
From the text: (§1) The following cell lines were used: K562 (human chronic myeloid leukemia cell line) and K562/Adr (a cell line with drug-resistance to chemotherapeutic drugs such as Adriamycin induced by a long-term exposure to a low dosage of Adriamycin); KB (human oral epithelia cell line) and KBv200 (a cell line with drug-resistance to chemotherapeutic drugs such as Vincristine induced by a long-term exposure to a low dosage of Vincristine); MCF-7 (human mammary cancer cell line) and MCF-7/Adr (a cell line with drug-resistance to chemotherapeutic drugs such as Adriamycin induced by a long-term exposure to a low dosage of Adriamycin). All the cell lines mentioned above were purchased from Institute of Hematology, Chinese Academy of Medical Sciences.
(§2) Half-inhibitory concentration (IC50) was calculated by the GraphPad Prism software (San Diego, Calif.). Drug reaction was analyzed by Sigmoldal non-linear regression model.
(§3) The cells at logarithmic phase were collected and added into RPMI 1640 medium (containing 10% fetal bovine serum) to prepare a cell suspension. Then the cell suspension was plated onto a 96-well plate at 100 μl per well (1×10^4 cell/well). Adriamycin, Vincristine, Taxol, cisplatin of different concentration gradients were directly added to the semi-suspending cells (K562 and K562/Adr). The adherent cells were cultured for 24 hours after inoculation so that they could adhere completely, and then the drugs mentioned above in different concentrations were added. There were six parallel repeated wells for every concentration gradient. The medium was added up to a final volume of 200 μl per well. The cells were cultured at the condition of 37° C., saturated humidity, 5% CO2 for 68 hours. 50 μl MTT (2 mg/mL) per well was added. The 96-well plate was centrifuged and the supernatant was removed. Then 120 μl DMSO per well was added and vibrated by vibrator. The OD value was determined at a wavelength of 590 nm by enzyme labeling instrument after the crystal was dissolved completely.
(§4) The calculating method: IC50=drug concentration when the inhibitory rate was 50%.
(§5) Drug resistant factor (RF)=the IC50 of the drug resistant cells/the IC50 of the sensitive cells.

KB = test: as above; settings: drug alone, 68 h
From the text: as §1, §2, §3, §4, §5

MCF-7 = test: as above; settings: 68 h
From the text: as §1, §2, §3, §4, §5

K562/Adr = test: as above; settings: for RF (drug resistant factor): IC50 K562/Adr / IC50 K562; for IC50: K562/Adr, drug alone, 68 h, MTT
From the text: as §1
The multi-drug resistant cell line of K562/Adr is mainly characterized by the concurrency of multiple resistant mechanisms including the increased expression of P-gp and Bcl-2 family proteins, and the enhanced activity of glyoxalase I, etc. K562/Adr is resistant to Adriamycin 20 folds more than K562, and cross-resistant to Vincristine, Daunomycin, Mitoxantrone, Taxol, etc.
as §2, §3, §4, §5

KBv200 = test: as above; settings: for RF (drug resistant factor): IC50 KBv200 / IC50 KB; for IC50: KBv200, drug alone, 68 h, MTT
From the text: as §1
The multi-drug resistant cell line, of KBv200 is also mainly characterized by the concurrency of multiple resistant mechanisms including the increased expression of P-gp and Bcl-2 family proteins, and the enhanced activity of glyoxalase I, etc. KBv200 is resistant to Vincristine more than 100 folds in comparison with KB, and cross-resistant to […], Daunomycin, Mitoxantrone, Taxol, etc.
as §2, §3, §4, §5

MCF-7/Adr = test: as above; settings: for RF (drug resistant factor): IC50 MCF-7/Adr / IC50 MCF-7; for IC50: MCF-7/Adr, drug alone, 68 h, MTT
From the text: as §1
Similarly, the multi-drug resistant cell line of MCF-7/Adr is also mainly characterized by the concurrency of multiple resistant mechanisms including the increased expression of P-gp and Bcl-2 family proteins, and the enhanced activity of glyoxalase I, etc.
as §2, §3, §4, §5

K562/Adr cells = test: Sensitizing effect of PA to conventional chemotherapeutic drugs (MTT); settings: drug alone, 68 h; for IC50: Homo sapiens, read-out: IC50 of anti-tumor drug, Ctrl (without PA)
Protocol: (§6) The cells at logarithmic phase were collected and added into RPMI 1640 medium (containing 10% fetal bovine serum) to make cell suspensions. The cell suspension was added to 96-well plate at 100 μl per well, and the cell number was 2×10^3 (suspending cells) or 1×10^3 (adherent cells) per well. After inoculation, the suspending cells were adapted for half an hour on the plate and the adherent cells were cultivated to allow adhesion before the drugs were added. The control groups (Ctrl) were added with anti-tumor drugs but without PA. The drug concentration of each PA group was 10 μg/mL. The concentrations of chemotherapeutic drugs increased from 0.001 μg/mL to 20 μg/mL. There Were six parallel repeated wells for every concentration gradient. RPMI 1640 was added up to a finally volume of 200 μl per well. The cells were cultured at the condition of 37° C., saturated humidity, 5% CO2 for 68 hours. The MTT was determined and the IC50 was calculated as in example 4.
(§7) The formula of resistant factor: Resistant Factor (RF)=the IC50 without sensitizer/the IC50 with sensitizer.

KBv200 cells = test: as above; settings: KBv200, drug alone, 68 h; for IC50: Homo sapiens, read-out: IC50 of anti-tumor drug, Ctrl (without PA)
Protocol: as §6, §7

MCF-7/Adr cells = test: as above; settings: drug alone, 68 h; for IC50: Homo sapiens, NCI/ADR-RES, read-out: IC50 of anti-tumor drug, Ctrl (without PA)
Protocol: as §6, §7

[1] = Homo sapiens, MCF7, MCF-7, drug alone, read-out: IC50
[2] = Homo sapiens, NCI/ADR-RES, read-out: IC50

Row | IC50 (K562; Homo sapiens, read-out: IC50) [µg/mL] | IC50 (KB; Homo sapiens, read-out: IC50) [µg/mL] | IC50 (MCF-7; [1]) [µg/mL] | IC50 (K562/Adr; Homo sapiens, read-out: IC50) [µg/mL] | IC50 (MCF-7/Adr; [2]) [µg/mL] | Structure (SMILES) | RF (drug resistant factor) (K562/Adr) | RF (drug resistant factor) (KBv200) | RF (drug resistant factor) (MCF-7/Adr) | IC50 (KBv200; Homo sapiens, read-out: IC50) [µg/mL] | IC50 (K562/Adr cells) [µg/mL] | IC50 (KBv200 cells) [µg/mL] | IC50 (MCF-7/Adr cells) [µg/mL] | further results
1 | – | – | – | – | – | N.N.[Cl][Pt][Cl] [DDP, Cisplatin] | 4.727 | 14.13 | 11.38 | – | – | – | – | IC50 (K562): 0.2274 ± 0.078 µg/mL; IC50 (KB): 0.5509 ± 0.094 µg/mL; IC50 (MCF-7; MCF-7, drug alone): 0.6453 ± 0.1675 µg/mL; IC50 (K562/Adr): 1.075 ± 0.5646 µg/mL; IC50 (KBv200): 7.785 ± 0.6536 µg/mL; IC50 (MCF-7/Adr): 7.342 ± 0.764 µg/mL; IC50 of anti-tumor drug, Ctrl (without PA) (K562/Adr cells; in µg/mL): 5.311 ± 0.4429; IC50 of anti-tumor drug, Ctrl (without PA) (KBv200 cells; in µg/mL): 5.868 ± 0.2438; IC50 of anti-tumor drug, Ctrl (without PA) (MCF-7/Adr cells; in µg/mL): 7.708 ± 1.077
2 | 0.0247 ± 0.001 (≈ 0.0289 µM) | 0.032 ± 0.001 (≈ 0.0375 µM) | 0.0415 ± 0.003 (≈ 0.0486 µM) | 0.932 ± 0.092 (≈ 1.09 µM) | 0.743 ± 0.21 (≈ 0.87 µM) | CC(=O)O[C@H]1C(=O)[C@@]2(C)[C@H]([C@H](OC(=O)c3ccccc3)[C@]3(O)C[C@H](OC(=O)[C@H](O)[C@@H](NC(=O)c4ccccc4)c4ccccc4)C(C)=C1C3(C)C)[C@]1(OC(C)=O)CO[C@@H]1C[C@@H]2O [Taxol, paclitaxel] | 37.72 | 42.12 | 17.65 | 1.348 ± 0.002 (≈ 1.58 µM) | 0.8225 ± 0.0073 | 1.01 ± 0.0421 | 0.906 ± 0.213 | –
3 | 0.218 ± 0.011 (≈ 0.264 µM) | 0.153 ± 0.092 (≈ 0.185 µM) | 0.096 ± 0.014 (≈ 0.116 µM) | 12.2 ± 0.576 (≈ 14.7 µM) | 18.6 ± 1.75 (≈ 22.5 µM) | CC[C@]1(O)C[C@H]2CN(CCc3c([nH]c4ccccc34)[C@@](C(=O)OC)(c3cc4c(cc3OC)N(C=O)[C@H]3[C@@](O)(C(=O)OC)[C@H](OC(C)=O)[C@]5(CC)C=CCN6CC[C@]43[C@@H]65)C2)C1 [VCR, Vincristine] | 55.73 | 139.5 | 193.75 | 21.3 ± 1.21 (≈ 25.9 µM) | 12.1 ± 0.349 | 10.7 ± 0.992 | 14.1 ± 1.95 | –
